{"source": "patent US20230021483A1", "about": "“[…] […] METHOD AND CLASSIFICATION OF PHARMACEUTICAL COMPONENTS BY USING TRANSCRIPTOMES” (National Institutes of Biomedical Innovation, Health and …, priority 2016, published 2023)", "system": "preferentially upregulated genes in LV, SP, LN", "test": "Z-score-based differential gene expression analysis (adjuvant group- or adjuvant-associated genes, 40 module mapping, TargetMine annotation)", "type": "in vivo, C57BL/6 mice", "conditions": "ID, LV", "from_the_text": "Each sample's FC value was converted into a z-score on a gene basis by using the entire data set for each organ. The Z-score of the triplicates of interest were summed for each adjuvant. For example, the three sample z-score in the LV sample following cdiGMP administration was summed on a gene-by-gene basis, after which the summed scores of >3 genes were selected as relatively preferentially expressed genes in the LV after cdiGMP administration. The following threshold was applied for selections. […] G2^LV: ALM_IP(z>1) & bCD(z>1) & ENDCN(z>1) & FCA(z>1). […] G4^LV: MALP2s(z>3). […] G2^SP: ENDCN_x2+ENDCN_x3(z>2) & ALM_IP(z>3) & bCD(z>3). […] G4^SP: ADX_ID_x2+ADX_ID_x3(z>2) & ADX_IP(z>3) & MALP2s(z>3). […] G2^LN: bCD(z>3) & FCA(z>3). […] G5^LN: K3(z>1.5) & K3SPG_x1+K3SPG_x2(z>1) & D35_x1+D35_x3(z>1). G6^LN: AddaVax(z>3)."}
{"substance": "Poly_IC", "values": [{"measurement": "Adar 1425405_a_at (Group G1, Modules 20)", "setting": "sample x1", "result": 3.45}, {"measurement": "Adar 1434268_at (Group G1, Modules 20)", "setting": "sample x1", "result": 2.82}, {"measurement": "Ddx58 1436562_at (Group G1, Modules 20)", "setting": "sample x1", "result": 2.92}, {"measurement": "Ddx58 1456890_at (Group G1, Modules 20)", "setting": "sample x1", "result": 3.02}, {"measurement": "Eif2ak2 1422005_at (Group G1, Modules 20)", "setting": "sample x1", "result": 2.89}, {"measurement": "G3bp2 1421323_a_at (Group G1, Modules 20)", "setting": "sample x1", "result": 2.83}, {"measurement": "Gm9706///Isg15 1431591_s_at (Group G1, Modules 20)", "setting": "sample x1", "result": 3.28}, {"measurement": "H2-T10///H2-T22///H2-T9 1449875_s_at (Group G1, Modules 20)", "setting": "sample x1", "result": 2.89}, {"measurement": "Ifih1 1426276_at (Group G1, Modules 20)", "setting": "sample x1", "result": 3.06}, {"measurement": "Ifit1 1450783_at (Group G1, Modules 20)", "setting": "sample x1", "result": 2.54}, {"measurement": "Ifit3 1449025_at (Group G1, Modules 20)", "setting": "sample x1", "result": 3.24}, {"measurement": "Irf7 1417244_a_at (Group G1, Modules 20)", "setting": "sample x1", "result": 3.53}, {"measurement": "Irgm1 1418825_at (Group G1, Modules 20)", "setting": "sample x1", "result": 2.78}, {"measurement": "Mndal 1426906_at (Group G1, Modules 20)", "setting": "sample x1", "result": 3.14}, {"measurement": "Pml 1448757_at (Group G1, Modules 20)", "setting": "sample x1", "result": 3.58}, {"measurement": "Pml 1456103_at (Group G1, Modules 20)", "setting": "sample x1", "result": 3.26}, {"measurement": "Rnf213 1455500_at (Group G1, Modules 20)", "setting": "sample x1", "result": 2.64}, {"measurement": "Rsad2 1436058_at (Group G1, Modules 20)", "setting": "sample x1", "result": 3}, {"measurement": "Shisa5 1423986_a_at (Group G1, Modules 20)", "setting": "sample x1", "result": 2.5}, {"measurement": "Shisa5 1437503_a_at (Group G1, Modules 20)", "setting": "sample x1", "result": 2.49}, {"measurement": "Stat1 1450033_a_at (Group G1, Modules 20)", "setting": "sample x1", "result": 2.73}, {"measurement": "Stat1 1450034_at (Group G1, Modules 20)", "setting": "sample x1", "result": 2.89}, {"measurement": "Tdrd7 1426716_at (Group G1, Modules 20)", "setting": "sample x1", "result": 3.28}, {"measurement": "Tor1aip2 1418115_s_at (Group G1, Modules 20)", "setting": "sample x1", "result": 2.38}, {"measurement": "Tor1aip2 1418116_at (Group G1, Modules 20)", "setting": "sample x1", "result": 2.73}, {"measurement": "Tor1aip2 1435526_at (Group G1, Modules 20)", "setting": "sample x1", "result": 2.88}, {"measurement": "Trim12a 1437432_a_at (Group G1, Modules 20)", "setting": "sample x1", "result": 3.39}, {"measurement": "Uba7 1426970_a_at (Group G1, Modules 20)", "setting": "sample x1", "result": 3}, {"measurement": "Adar 1425405_a_at (Group G1, Modules 20)", "setting": "sample x2", "result": 2.75}, {"measurement": "Adar 1434268_at (Group G1, Modules 20)", "setting": "sample x2", "result": 2.17}, {"measurement": "Ddx58 1436562_at (Group G1, Modules 20)", "setting": "sample x2", "result": 2.82}, {"measurement": "Ddx58 1456890_at (Group G1, Modules 20)", "setting": "sample x2", "result": 2.77}, {"measurement": "Eif2ak2 1422005_at (Group G1, Modules 20)", "setting": "sample x2", "result": 2.87}, {"measurement": "G3bp2 1421323_a_at (Group G1, Modules 20)", "setting": "sample x2", "result": 2.85}, {"measurement": "Gm9706///Isg15 1431591_s_at (Group G1, Modules 20)", "setting": "sample x2", "result": 3.62}, {"measurement": "H2-T10///H2-T22///H2-T9 1449875_s_at (Group G1, Modules 20)", "setting": "sample x2", "result": 3.28}, {"measurement": "Ifih1 1426276_at (Group G1, Modules 20)", "setting": "sample x2", "result": 3.34}, {"measurement": "Ifit1 1450783_at (Group G1, Modules 20)", "setting": "sample x2", "result": 2.35}, {"measurement": "Ifit3 1449025_at (Group G1, Modules 20)", "setting": "sample x2", "result": 3.25}, {"measurement": "Irf7 1417244_a_at (Group G1, Modules 20)", "setting": "sample x2", "result": 3.38}, {"measurement": "Irgm1 1418825_at (Group G1, Modules 20)", "setting": "sample x2", "result": 2.84}, {"measurement": "Mndal 1426906_at (Group G1, Modules 20)", "setting": "sample x2", "result": 2.4}, {"measurement": "Pml 1448757_at (Group G1, Modules 20)", "setting": "sample x2", "result": 3.3}, {"measurement": "Pml 1456103_at (Group G1, Modules 20)", "setting": "sample x2", "result": 2.5}, {"measurement": "Rnf213 1455500_at (Group G1, Modules 20)", "setting": "sample x2", "result": 3.01}, {"measurement": "Rsad2 1436058_at (Group G1, Modules 20)", "setting": "sample x2", "result": 3.3}, {"measurement": "Shisa5 1423986_a_at (Group G1, Modules 20)", "setting": "sample x2", "result": 2.99}, {"measurement": "Shisa5 1437503_a_at (Group G1, Modules 20)", "setting": "sample x2", "result": 2.66}, {"measurement": "Stat1 1450033_a_at (Group G1, Modules 20)", "setting": "sample x2", "result": 2.67}, {"measurement": "Stat1 1450034_at (Group G1, Modules 20)", "setting": "sample x2", "result": 3.04}, {"measurement": "Tdrd7 1426716_at (Group G1, Modules 20)", "setting": "sample x2", "result": 3.24}, {"measurement": "Tor1aip2 1418115_s_at (Group G1, Modules 20)", "setting": "sample x2", "result": 2.68}, {"measurement": "Tor1aip2 1418116_at (Group G1, Modules 20)", "setting": "sample x2", "result": 2.94}, {"measurement": "Tor1aip2 1435526_at (Group G1, Modules 20)", "setting": "sample x2", "result": 2.62}, {"measurement": "Trim12a 1437432_a_at (Group G1, Modules 20)", "setting": "sample x2", "result": 3.59}, {"measurement": "Uba7 1426970_a_at (Group G1, Modules 20)", "setting": "sample x2", "result": 3.13}, {"measurement": "Adar 1425405_a_at (Group G1, Modules 20)", "setting": "sample x3", "result": 1.58}, {"measurement": "Adar 1434268_at (Group G1, Modules 20)", "setting": "sample x3", "result": 1.28}, {"measurement": "Ddx58 1436562_at (Group G1, Modules 20)", "setting": "sample x3", "result": 1.64}, {"measurement": "Ddx58 1456890_at (Group G1, Modules 20)", "setting": "sample x3", "result": 1.87}, {"measurement": "Eif2ak2 1422005_at (Group G1, Modules 20)", "setting": "sample x3", "result": 1.83}, {"measurement": "G3bp2 1421323_a_at (Group G1, Modules 20)", "setting": "sample x3", "result": 1.31}, {"measurement": "Gm9706///Isg15 1431591_s_at (Group G1, Modules 20)", "setting": "sample x3", "result": 2.13}, {"measurement": "H2-T10///H2-T22///H2-T9 1449875_s_at (Group G1, Modules 20)", "setting": "sample x3", "result": 2.21}, {"measurement": "Ifih1 1426276_at (Group G1, Modules 20)", "setting": "sample x3", "result": 2.12}, {"measurement": "Ifit1 1450783_at (Group G1, Modules 20)", "setting": "sample x3", "result": 1.28}, {"measurement": "Ifit3 1449025_at (Group G1, Modules 20)", "setting": "sample x3", "result": 1.95}, {"measurement": "Irf7 1417244_a_at (Group G1, Modules 20)", "setting": "sample x3", "result": 2.38}, {"measurement": "Irgm1 1418825_at (Group G1, Modules 20)", "setting": "sample x3", "result": 1.84}, {"measurement": "Mndal 1426906_at (Group G1, Modules 20)", "setting": "sample x3", "result": 2.37}, {"measurement": "Pml 1448757_at (Group G1, Modules 20)", "setting": "sample x3", "result": 2}, {"measurement": "Pml 1456103_at (Group G1, Modules 20)", "setting": "sample x3", "result": 2.12}, {"measurement": "Rnf213 1455500_at (Group G1, Modules 20)", "setting": "sample x3", "result": 1.47}, {"measurement": "Rsad2 1436058_at (Group G1, Modules 20)", "setting": "sample x3", "result": 1.97}, {"measurement": "Shisa5 1423986_a_at (Group G1, Modules 20)", "setting": "sample x3", "result": 1.61}, {"measurement": "Shisa5 1437503_a_at (Group G1, Modules 20)", "setting": "sample x3", "result": 1.52}, {"measurement": "Stat1 1450033_a_at (Group G1, Modules 20)", "setting": "sample x3", "result": 1.92}, {"measurement": "Stat1 1450034_at (Group G1, Modules 20)", "setting": "sample x3", "result": 1.94}, {"measurement": "Tdrd7 1426716_at (Group G1, Modules 20)", "setting": "sample x3", "result": 1.44}, {"measurement": "Tor1aip2 1418115_s_at (Group G1, Modules 20)", "setting": "sample x3", "result": 1.13}, {"measurement": "Tor1aip2 1418116_at (Group G1, Modules 20)", "setting": "sample x3", "result": 0.96}, {"measurement": "Tor1aip2 1435526_at (Group G1, Modules 20)", "setting": "sample x3", "result": 1.58}, {"measurement": "Trim12a 1437432_a_at (Group G1, Modules 20)", "setting": "sample x3", "result": 2.9}, {"measurement": "Uba7 1426970_a_at (Group G1, Modules 20)", "setting": "sample x3", "result": 1.71}]}
